Like-named read-outs stand apart in the source and are kept apart here.
What was measured:
[1] = test system: Staphylococcus aureus; test: Microbicidal activity of the myeloperoxidase system (p-MPO, glucose oxidase, glucose) with amino acids in the presence of blood, CFU plate counts; synergy determination from these CFU; assay type: cell-based; conditions: for Average Viability CFU/ml 50 min / Log Reduction 50 min: single amino acid 2.5 mM, MPO 4.7 U/ml, GO 4.2 U/ml, in the presence of blood
Method in brief: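 Staphylococcus aureus grown 24 hours in TSB at 35° C was washed in saline and added at a final 2-3×10^7 CFU per mL. The bacteria were mixed in 1 mL reactions with porcine myeloperoxidase, glucose oxidase, amino acids, 150 mM sodium chloride and 3% venous whole blood. Adding glucose to 150 mM started killing. After catalase addition, survivors were counted by serial dilution plating on TSA at 37° C for 24 hours.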

[2] = test system: Staphylococcus aureus; test: Control: microbicidal activity of the amino acid or analogue alone (no glucose, MPO, glucose oxidase) in the presence of blood; assay type: cell-based; conditions: for log reduction at 5000 µM: Staphylococcus aureus, 1 h, read-out: Log Reduction 60 min
Description: As a control to determine the microbicidal activity of the amino acids alone, the foregoing procedure was followed without replication, except in the absence of glucose, MPO, and glucose oxidase.

[3] = L-lysine 5 mM, MPO 9 U/ml, GO 0.833 U/ml, 3% blood
[4] = L-lysine 5 mM, MPO 9 U/ml, GO 8.33 U/ml, 3% blood
[5] = L-lysine 5 mM, MPO 38 U/ml, GO 3.3 U/ml, 3% blood
[6] = L-lysine 5 mM, MPO 38 U/ml, GO 33.3 U/ml, 3% blood
[7] = L-lysine 20 mM, MPO 38 U/ml, GO 3.3 U/ml, 3% blood
[8] = L-lysine 20 mM, MPO 38 U/ml, GO 33.3 U/ml, 3% blood
[9] = L-lysine […], MPO 9 U/ml, GO 0.833 U/ml, 3% blood
[10] = L-lysine […], MPO 9 U/ml, GO 8.33 U/ml, 3% blood
[11] = MPO 100 μg/mL, AA 20 mM, 30 min
[12] = MPO 100 μg/mL, AA 20 mM, 60 min
[13] = Table 2, amino acid 5 mM (none: 0 mM), MPO 38 U/ml, GO 33.3 U/ml, blood
[14] = amino acid alone 5 mM, MPO 0, GO 0, no glucose, blood, without replication
[15] = Table 7, amino acid analogue 5 mM, MPO 38 U/ml, GO 33.3 U/ml, blood
[16] = amino acid analogue alone 5 mM, MPO 0, GO 0, no glucose, blood
[17] = Table 3, amino acid 5 mM (none: 0 mM), MPO 38 U/ml, GO 33.3 U/ml, blood

## NCCCC[C@H](N)C(=O)O [L-Lysine]
[1]; [3]
  Average Viability CFU/ml 30 min: 775000 CFU/ml
  Average Viability CFU/ml 60 min: 53000 CFU/ml
  Log Reduction 30 min: 1.5
  Log Reduction 60 min: 2.7
[1]; [4]
  Average Viability CFU/ml 30 min: 675000 CFU/ml
  Average Viability CFU/ml 60 min: 47 CFU/ml
  Log Reduction 30 min: 1.6
  Log Reduction 60 min: 5.7
[1]; [5]
  Average Viability CFU/ml 30 min: 6050 CFU/ml
  Average Viability CFU/ml 60 min: 770 CFU/ml
  Log Reduction 30 min: 3.6
  Log Reduction 60 min: 4.5
[1]; [6]
  Average Viability CFU/ml 30 min: 7 CFU/ml
  Average Viability CFU/ml 60 min: 3 CFU/ml
  Log Reduction 30 min: 6.5
  Log Reduction 60 min: 6.8
[1]; [7]
  Average Viability CFU/ml 30 min: 6450 CFU/ml
  Average Viability CFU/ml 60 min: 620 CFU/ml
  Log Reduction 30 min: 3.6
  Log Reduction 60 min: 4.6
[1]; [8]
  Average Viability CFU/ml 30 min: 5 CFU/ml
  Average Viability CFU/ml 60 min: 5 CFU/ml
  Log Reduction 30 min: 6.6
  Log Reduction 60 min: 6.6
[1]; [9]
  Average Viability CFU/ml 30 min: 5050000 CFU/ml
  Average Viability CFU/ml 60 min: 620000 CFU/ml
  Log Reduction 30 min: 0.7
  Log Reduction 60 min: 1.6
[1]; [10]
  Average Viability CFU/ml 30 min: 6200000 CFU/ml
  Average Viability CFU/ml 60 min: 4950 CFU/ml
  Log Reduction 30 min: 0.6
  Log Reduction 60 min: 3.7
[1]; MPO 25 μg/mL, AA 5 mM, 30 min
  Log 10 (CFU + 1) Survivors: 5.8
[1]; MPO 25 μg/mL, AA 5 mM, 60 min
  Log 10 (CFU + 1) Survivors: 1.6
[1]; MPO 25 μg/mL, AA […], 30 min
  Log 10 (CFU + 1) Survivors: 6.8
[1]; MPO 25 μg/mL, AA […], 60 min
  Log 10 (CFU + 1) Survivors: 3.7
[1]; MPO 100 μg/mL, AA 5 mM, 30 min
  Log 10 (CFU + 1) Survivors: 0.9
[1]; MPO 100 μg/mL, AA 5 mM, 60 min
  Log 10 (CFU + 1) Survivors: 0.5
[1]; [11]
  Log 10 (CFU + 1) Survivors: 0.8
[1]; [12]
  Log 10 (CFU + 1) Survivors: 0.8
[1]; [13]
  Average Viability CFU/ml 60 min: 0 CFU/ml
  Log 10 (CFU + 1) Survivors 60 min: 0.0
  Log Reduction 60 min: 7.4
[1]; Table 10
  Average Viability CFU/ml 50 min: 16200000 CFU/ml
  Log Reduction 50 min: 0.2
[1]; Table 11
  Average Viability CFU/ml 50 min: 18900000 CFU/ml
  Log Reduction 50 min: 0.2
[1]; Table 13
  Average Viability CFU/ml 50 min: 11400000 CFU/ml
  Log Reduction 50 min: 0.3
[1]; Table 14
  Average Viability CFU/ml 50 min: 16950000 CFU/ml
  Log Reduction 50 min: 0.2
[2]
  log reduction at 5000 µM: 0
[2]; [14]
  Average Viability CFU/ml 60 min: 21400000 CFU/ml

## COC(=O)[C@@H](N)Cc1ccc(O)cc1.Cl [L-Tyrosine methyl ester hydrochloride]
[1]; [15]
  Average Viability CFU/ml 60 min: 87000 CFU/ml
  Log Reduction 60 min: 2.4
[2]; [16]
  log reduction at 5000 µM: 0
  Average Viability CFU/ml 60 min: 20900000 CFU/ml

## O=C(O)[C@@H]1C[C@@H](O)CN1 [L-Hydroxyproline]
[1]; MPO 25 μg/mL, AA 5 mM, 30 min
  Log 10 (CFU + 1) Survivors: 7.3
[1]; MPO 25 μg/mL, AA 5 mM, 60 min
  Log 10 (CFU + 1) Survivors: 7.3
[1]; MPO 25 μg/mL, AA […], 30 min
  Log 10 (CFU + 1) Survivors: 7.4
[1]; MPO 25 μg/mL, AA […], 60 min
  Log 10 (CFU + 1) Survivors: 6.1
[1]; MPO 100 μg/mL, AA 5 mM, 30 min
  Log 10 (CFU + 1) Survivors: 7.2
[1]; MPO 100 μg/mL, AA 5 mM, 60 min
  Log 10 (CFU + 1) Survivors: 0.9
[1]; [11]
  Log 10 (CFU + 1) Survivors: 7.2
[1]; [12]
  Log 10 (CFU + 1) Survivors: 7.3
[1]; [17]
  Average Viability CFU/ml 60 min: 0 CFU/ml
  Log 10 (CFU + 1) Survivors 60 min: 0.0
  Log Reduction 60 min: 7.3
[1]; Table 10
  Average Viability CFU/ml 50 min: 13100000 CFU/ml
  Log Reduction 50 min: 0.3
[1]; Table 13
  Average Viability CFU/ml 50 min: 11450000 CFU/ml
  Log Reduction 50 min: 0.3
[1]; Table 14
  Average Viability CFU/ml 50 min: 11550000 CFU/ml
  Log Reduction 50 min: 0.4
[2]
  log reduction at 5000 µM: 0
[2]; [14]
  Average Viability CFU/ml 60 min: 20400000 CFU/ml

## CCOC(=O)CCN.Cl [Beta-Alanine ethyl ester hydrochloride]
[1]; [15]
  Average Viability CFU/ml 60 min: 1195000 CFU/ml
  Log Reduction 60 min: 1.3
[2]
  log reduction at 5000 µM: 0
[2]; [16]
  Average Viability CFU/ml 60 min: 23100000 CFU/ml

— patent US8945540B2, “Compositions for enhancing the antibacterial activity of myeloperoxidase and methods of use thereof” (Exoxemis, Inc., priority 2008, dated 2015)
